Tested on: gastric motility
Assay: Activity on gastric motility in rat (balloon in stomach, conscious)
Assay type: in vivo, male Wistar rats
Conditions: for Contraction frequency (% of value prior to administration) / Motility index (% of value prior to administration): 1 mg/kg i.p.
Protocol: Experiment 2. Activity on Gastric Motility in Rat Male Wistar rats weighing 250 to 350 g were fasted for 18 hours and then provided for experiment. The abdominal cavity was opened under ether anesthesia and a rubber balloon was inserted into the stomach via the forestomach. A cannula for administering a drug was put in the peritoneal cavity. After recovery from the anesthesia, the balloon was connected to low pressure transducers to record gastric motility in the conscious state. The compound of the present invention was suspended in physiological saline and the suspension was intraperitoneally administered. Contraction frequency and motility index are shown in terms of a proportion (%) of a mean value calculated for 15 minutes to a value prior to administration (0 minute). The value for 0 minute was made a mean value for 30 minutes prior to the administration.

[1] = 10 min after administration, N = 4
[2] = 30 min after administration, N = 4
[3] = 40 min after administration, N = 4
[4] = 50 min after administration, N = 4
[5] = 60 min after administration, N = 4

CC(C)n1c(=O)c(C(=O)N[C@H]2C[C@H]3CC[C@@H](C2)N3C)cc2ccccc21 [Compound 1, endo-N-(8-methyl-8-azabicyclo[3.2.1]oct-3-yl)-1-isopropyl-2(1H)-quinolone-3-carboxamide]
Contraction frequency (% of value prior to administration) [1]: 182.3% | Motility index (% of value prior to administration) [1]: 169.3% | Motility index (% of value prior to administration) (20 min after administration, N = 4): 188.1% | Contraction frequency (% of value prior to administration) (20 min after administration, N = 4, *: P < 0.05): 243.5% | Contraction frequency (% of value prior to administration) [2]: 187.0% | Motility index (% of value prior to administration) [2]: 144.2% | Contraction frequency (% of value prior to administration) [3]: 134.7% | Motility index (% of value prior to administration) [3]: 83.3% | Contraction frequency (% of value prior to administration) [4]: 134.9% | Motility index (% of value prior to administration) [4]: 88.8% | Contraction frequency (% of value prior to administration) [5]: 141.6% | Motility index (% of value prior to administration) [5]: 108.8% | effect on gastric motility (1 mg/kg, i.p.): accelerated the gastric motility
